The target of this assay is Carbonic anhydrase 2 (Homo sapiens, UniProt P00918). In words: Enzyme Inhibition Assay. To be noted: pH 7.4; 25 °C. The method, then:
Saturated CO2 solutions in water at 25°C were used as substrate. Stock solutions of inhibitors were prepared at a concentration of 10 mM (in dimethyl sulphoxidewater 1:1, v/v) and dilutions up to 1 mM done with the assay buffer mentioned above. […] Inhibitor and enzyme solutions were preincubated together for 10 min at room temperature prior to assay, in order to allow for the formation of the E-I complex.

Each structure is given as a SMILES string.

For orientation: IC50 means the midpoint of a concentration-inhibition curve. A higher IC50 goes with a need for much substance. `Cn1c(=O)c2c(ncn2C)n(C)c1=O` showed an IC50 of 2 mM.
Then `O=C(/C=C/C=C/c1ccc2c(c1)OCO2)N1CCCCC1` [1-[(2E,4E)-5-(1,3-benzodioxol-5-yl)penta-2,4-dienoyl]piperidine], with 2 mM.

These data come from BindingDB's records for doi:10.3109/14756366.2011.578393 (Gitam University, 2012).
